Measured values: patent US8580965B2, “Substituted sulfonamide compounds” (Gruenenthal GmbH, priority 2006, dated 2013)

target: T1, human B1R receptor (bradykinin 1 receptor) (Homo sapiens, UniProt P46663); experiment: FLIPR Ca2+ assay (Fluo-4) on CHO K1 cells stably transfected with the human B1R gene; % activation and % inhibition at 10 μM; type: cell-based; details: CHO-K1, test substance 10 μM; CHO K1 hB1R cells; Ca2+ inflow after 0.5 nM Lys-Des-Arg9-bradykinin; read-out: B1R antagonism, human [10 μM] % inhibition
T1 construct: host or cells: CHO K1 cells (hB1R cells)
T1 sequence (P46663 1-353): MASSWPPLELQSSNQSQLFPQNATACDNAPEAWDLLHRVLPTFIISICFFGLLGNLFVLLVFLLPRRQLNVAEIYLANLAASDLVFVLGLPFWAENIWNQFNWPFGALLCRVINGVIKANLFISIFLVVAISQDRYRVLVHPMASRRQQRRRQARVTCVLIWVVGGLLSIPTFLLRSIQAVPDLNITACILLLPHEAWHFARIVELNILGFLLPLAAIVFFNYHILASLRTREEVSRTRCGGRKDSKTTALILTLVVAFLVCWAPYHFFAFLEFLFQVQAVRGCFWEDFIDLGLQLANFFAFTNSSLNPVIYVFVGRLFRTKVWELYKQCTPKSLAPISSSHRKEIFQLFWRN
Protocol: The agonistic or antagonistic action of substances can be quantified on the bradykinin receptor 1 (B1R) of the species human and rat with ectopically expressing cell lines (CHO K1 cells) and with the aid of a Ca^2+-sensitive dye (Fluo-4) using a fluorescent imaging plate reader (FLIPR). The indication in % activation is based on the Ca^2+ signal after addition of Lys-Des-Arg^9-bradykinin (0.5 nM) or Des-Arg^9-bradykinin (100 nM). Antagonists result in a suppression of the Ca^2+ influx following administration of the agonist. The % inhibition in comparison with the maximum achievable inhibition is indicated.
Functional Investigation on the Bradykinin 1 Receptor (B1R)
The agonistic or antagonistic action of substances can be determined on the bradykinin 1 receptor (B1R) of the human and rat species with the following assay. According to this assay, the Ca^2+ inflow through the channel is quantified with the aid of a Ca^2+-sensitive dyes (Fluo-4 type, Molecular Probes Europe BV, Leiden, The Netherlands) in a fluorescent imaging plate reader (FLIPR, Molecular Devices, Sunnyvale, USA).
Chinese Hamster Ovary cells (CHO K1 cells) which are stably transfected with the human B1R gene (hB1R cells, Euroscreen s.a., Gosselies, Belgium) or the B1R gene of the rat (rB1R cells, Axxam, Milan, Italy) are used. For functional investigations, these cells are plated-out on black 96-well plates with a clear base (BD Biosciences, Heidelberg, Germany) in a density of 20,000-25,000 cells/well. Overnight, the cells are incubated at 37° C. and 5% CO2 in culture medium (hB1R cells: Nutrient Mixture Ham's F12, Gibco Invitrogen GmbH, Karlsruhe, Germany; rB1R cells: D-MEM/F12, Gibco Invitrogen, Karlsruhe, Germany) with 10 vol. % FBS (foetal bovine serum, Gibco Invitrogen GmbH, Karlsruhe, Germany). On the following day, the cells are loaded with 2.13 μM Fluo-4 (Molecular Probes Europe BV, Leiden, The Netherlands) in HBSS buffer (Hank's buffered saline solution, Gibco Invitrogen GmbH, Karlsruhe, Germany) […] (Sigma-Aldrich, Taufkirchen, Germany) and 10 mM HEPES (Sigma-Aldrich, Taufkirchen, Germany) for 60 min at 37° C. The plates are subsequently washed 2× with HBSS buffer, and HBSS buffer which additionally contains 0.1% BSA (bovine serum albumin; Sigma-Aldrich, Taufkirchen, Germany), 5.6 mM glucose and 0.05% gelatine (Merck KGaA, Darmstadt, Germany) is added. After a further incubation of 20 minutes at room temperature, the plates are inserted into the FLIPR for Ca^2+ measurement. The Ca^2+-dependent fluorescence is measured here before and after addition of substances (λex=488 nm, λem=540 nm). The quantification is effected by measurement of the highest fluorescence intensity (FC, fluorescence counts) over time.
The FLIPR protocol comprises 2 additions of substance. Test substances (10 μM) are first pipetted on to the cells and the Ca^2+ inflow is compared with the control (hB1R: Lys-Des-Arg^9-bradykinin 0.5 nM; rB1R: Des-Arg^9-bradykinin 100 nM). The value in % activation based on the Ca^2+ signal after addition of Lys-Des-Arg^9-bradykinin (0.5 nM) or Des-Arg^9-bradykinin (100 nM) is obtained therefrom. After incubation for 10 minutes, 0.5 nM Lys-Des-Arg^9-bradykinin (hB1R) or 100 nM Des-Arg^9-bradykinin (rB1R) are applied and the inflow of Ca^2+ is likewise determined. Antagonists lead to a suppression of the Ca^2+ inflow. % inhibition compared with the maximum inhibition which can be achieved is calculated. The compounds show a good activity on the human and on the rat receptor. The following data were determined by way of example: […]

| Structure (SMILES) | inhibition at 10 µM [%] |
| --- | --- |
| O=C(COC1CCN(S(=O)(=O)c2ccc(F)cc2)C1)N1CCC(O)(Cc2ccccc2)CC1 (stereo not drawn) [Example 15, 1-(4-benzyl-4-hydroxy-piperidin-1-yl)-2-[1-(4-fluoro-phenylsulfonyl)-pyrrolidin-3-yloxy]-ethanone] | 40.2 |
| COc1cc(C)c(S(=O)(=O)N(C)CCCC(=O)N2CCC(O)(c3cccnc3)CC2)c(C)c1 [Example 114, N-(4-(4-hydroxy-4-(pyridin-3-yl)piperidin-1-yl)-4-oxobutyl)-4-methoxy-N,2,6-trimethylphenylsulfonamide] | 102 |
| CN(CCOCC(=O)N1CCC(O)(Cc2ccccc2)CC1)S(=O)(=O)c1ccccc1 [Example 39, N-{2-[2-(4-benzyl-4-hydroxy-piperidin-1-yl)-2-oxo-ethoxy]-ethyl}-N-methyl-phenylsulfonamide] | 2.99 |
| COc1ccc(S(=O)(=O)N2CCCCC2COCC(=O)N2CCC(O)(Cc3ccccc3)CC2)c(OC)c1 (stereo not drawn) [Example 60, 1-(4-benzyl-4-hydroxy-piperidin-1-yl)-2-[1-(2,4-dimethoxy-phenylsulfonyl)-piperidin-2-ylmethoxy]-ethanone] | -44 |
| COc1cc(C)c(S(=O)(=O)N2CCCCC2COCCC(=O)N2CCC(O)(Cc3ccccc3)CC2)c(C)c1 (stereo not drawn) [Example 179, 1-(4-benzyl-4-hydroxypiperidin-1-yl)-3-((1-(4-methoxy-2,6-dimethylphenylsulfonyl)piperidin-2-yl)methoxy)propan-1-one] | 61.5 |
| O=C(COCC1CCCN1S(=O)(=O)c1ccc(Cl)c(Cl)c1)N1CCC(O)(c2cccnc2)CC1 (stereo not drawn) [Example 19, 2-[1-(3,4-dichloro-phenylsulfonyl)-pyrrolidin-2-ylmethoxy]-1-(4′-hydroxy-3′,4′,5′,6′-tetrahydro-2′H-[3,4′]bipyridinyl-1′-yl)-ethanone] | 23.2 |
| O=C(COCC1CCCCN1S(=O)(=O)c1ccc(Cl)c(Cl)c1)N1CCC(O)(c2ccccn2)CC1 (stereo not drawn) [Example 25, 2-[1-(3,4-dichloro-phenylsulfonyl)-piperidin-2-ylmethoxy]-1-(4′-hydroxy-3′,4′,5′,6′-tetrahydro-2′H-[2,4′]bipyridinyl-1′-yl)-ethanone] | 10 |
| COc1cc(C)c(S(=O)(=O)N2CCC(CCOCC(=O)N3CCC(O)(Cc4ccccc4)CC3)CC2)c(C)c1C [Example 14, 1-(4-benzyl-4-hydroxy-piperidin-1-yl)-2-{2-[1-(4-methoxy-2,3,6-trimethyl-phenylsulfonyl)-piperidin-4-yl]-ethoxy}-ethanone] | 43.2 |
| COc1cc(C)c(S(=O)(=O)N2CCCC(OCCC(=O)N3CCC(O)(c4ccc(Br)cc4)CC3)C2)c(C)c1 (stereo not drawn) [Example 185, 1-(4-(4-bromophenyl)-4-hydroxypiperidin-1-yl)-3-(1-(4-methoxy-2,6-dimethylphenylsulfonyl)piperidin-3-yloxy)propan-1-one] | 54.6 |
| COc1cc(C)c(S(=O)(=O)N2CCN(CCOCC(=O)N3CCC(O)(Cc4ccccc4)CC3)CC2)c(C)c1C [Example 18, 1-(4-benzyl-4-hydroxy-piperidin-1-yl)-2-{2-[4-(4-methoxy-2,3,6-trimethyl-phenylsulfonyl)-piperazin-1-yl]-ethoxy}-ethanone] | 23.5 |
| COc1cc(C)c(S(=O)(=O)N2CCCCC2COCCC(=O)N2CCC(O)(c3ccc(Cl)c(C(F)(F)F)c3)CC2)c(C)c1 (stereo not drawn) [Example 180, 1-(4-(4-chloro-3-(trifluoromethyl)phenyl)-4-hydroxypiperidin-1-yl)-3-((1-(4-methoxy-2,6-dimethylphenylsulfonyl)piperidin-2-yl)methoxy)propan-1-one] | 39.9 |
| COc1cc(C)c(S(=O)(=O)N2CCCCC2COCCC(=O)N2CCC(O)(c3ccccc3)CC2)c(C)c1 (stereo not drawn) [Example 183, 1-(4-hydroxy-4-phenylpiperidin-1-yl)-3-((1-(4-methoxy-2,6-dimethylphenylsulfonyl)piperidin-2-yl)methoxy)propan-1-one] | 68.2 |
| O=C(COC1CCN(S(=O)(=O)c2ccc(Cl)cc2)C1)N1CCC(O)(Cc2ccccc2)CC1 (stereo not drawn) [Example 31, 1-(4-benzyl-4-hydroxy-piperidin-1-yl)-2-[1-(4-chloro-phenylsulfonyl)-pyrrolidin-3-yloxy]-ethanone] | 6.81 |
| COc1ccc(S(=O)(=O)N(C)CCOCC(=O)N2CCC(O)(Cc3ccccc3)CC2)cc1OC [Example 16, N-{2-[2-(4-benzyl-4-hydroxy-piperidin-1-yl)-2-oxo-ethoxy]-ethyl}-3,4-dimethoxy-N-methyl-phenylsulfonamide] | 31.2 |
| COc1cc(C)c(S(=O)(=O)N2CCC(OCCC(=O)N3CCC(O)(c4ccc(Br)cc4)CC3)C2)c(C)c1 (stereo not drawn) [Example 187, 1-(4-(4-bromophenyl)-4-hydroxypiperidin-1-yl)-3-(1-(4-methoxy-2,6-dimethylphenylsulfonyl)pyrrolidin-3-yloxy)propan-1-one] | 99.9 |

Second part, the molecule after the results:

| inhibition at 10 µM [%] | Structure (SMILES) |
| --- | --- |
| -16.2 | COc1ccc(S(=O)(=O)N2CCCC2COCC(=O)N2CCC(O)(Cc3ccccc3)CC2)cc1 (stereo not drawn) [Example 57, 1-(4-benzyl-4-hydroxy-piperidin-1-yl)-2-[1-(4-methoxy-phenylsulfonyl)-pyrrolidin-2-ylmethoxy]-ethanone] |
| 91.2 | CN(CCCC(=O)N1CCC(O)(c2cccnc2)CC1)S(=O)(=O)c1ccc(Cl)cc1Cl [Example 116, 2,4-dichloro-N-(4-(4-hydroxy-4-(pyridin-3-yl)piperidin-1-yl)-4-oxobutyl)-N-methylphenylsulfonamide] |
| -4.32 | COc1cc(C)c(S(=O)(=O)N2CCN(CCOCC(=O)N3CCC(O)(c4ccccn4)CC3)CC2)c(C)c1C [Example 48, 1-(4′-hydroxy-3′,4′,5′,6′-tetrahydro-2′H-[2,4′]bipyridinyl-1′-yl)-2-{2-[4-(4-methoxy-2,3,6-trimethyl-phenylsulfonyl)-piperazin-1-yl]-ethoxy}-ethanone] |
| 75.4 | COc1cc(C)c(S(=O)(=O)N2CCCCC2COCCC(=O)N2CCC(O)(c3ccc(Cl)cc3)CC2)c(C)c1 (stereo not drawn) [Example 181, 1-(4-(4-chlorophenyl)-4-hydroxypiperidin-1-yl)-3-((1-(4-methoxy-2,6-dimethylphenylsulfonyl)piperidin-2-yl)methoxy)propan-1-one] |
| 7.66 | COc1ccc(S(=O)(=O)N2CCCCC2CCOCC(=O)N2CCC(O)(Cc3ccccc3)CC2)cc1 (stereo not drawn) [Example 29, 1-(4-benzyl-4-hydroxy-piperidin-1-yl)-2-{2-[1-(4-methoxy-phenylsulfonyl)-piperidin-2-yl]-ethoxy}-ethanone] |
| -3.95 | COc1cc(C)c(S(=O)(=O)N2CCN(CCOCC(=O)N3CCC(O)(c4cccnc4)CC3)CC2)c(C)c1C [Example 47, 1-(4′-hydroxy-3′,4′,5′,6′-tetrahydro-2′H-[3,4′]bipyridinyl-1′-yl)-2-{2-[4-(4-methoxy-2,3,6-trimethyl-phenylsulfonyl)-piperazin-1-yl]-ethoxy}-ethanone] |
